{"source": "ChEMBL document CHEMBL3638677", "about": "“Bicyclic compounds and their uses as dual c-SRC/JAK inhibitors” (2015)", "key": {"[1]": {"biological_target": "Proto-oncogene tyrosine-protein kinase Src (Homo sapiens, UniProt P12931)", "sequence (P12931 2-536 limits assumed)": "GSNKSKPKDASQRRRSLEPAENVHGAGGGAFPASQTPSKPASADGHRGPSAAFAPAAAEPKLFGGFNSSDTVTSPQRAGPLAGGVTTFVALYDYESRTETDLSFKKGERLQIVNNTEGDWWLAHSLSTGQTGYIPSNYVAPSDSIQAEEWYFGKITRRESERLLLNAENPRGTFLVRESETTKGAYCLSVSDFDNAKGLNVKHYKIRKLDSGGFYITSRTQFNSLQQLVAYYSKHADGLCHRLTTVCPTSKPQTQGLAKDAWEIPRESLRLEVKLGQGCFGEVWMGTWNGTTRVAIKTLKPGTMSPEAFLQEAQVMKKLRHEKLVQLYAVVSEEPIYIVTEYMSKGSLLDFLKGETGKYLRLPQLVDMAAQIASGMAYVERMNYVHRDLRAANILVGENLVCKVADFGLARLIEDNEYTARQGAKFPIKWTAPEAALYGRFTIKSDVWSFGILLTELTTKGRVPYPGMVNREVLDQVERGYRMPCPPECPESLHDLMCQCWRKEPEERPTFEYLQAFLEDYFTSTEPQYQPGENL", "assay": "TR-FRET Assay: Compounds were screened in the TR-FRET assay for JAK2 and c-Src kinase inhibition. Ultra light poly GT (Perkin Elmer) was used as the substrate for JAK2 and c-Src with the ATP concentration of 10 μM and 50 μM, respectively. The Eu-labelled anti-phospho tyrosine antibody (Perkin Elmer) was added at 1 nM and the fluorescence emission at 615 nm and 665 nm was measured with an excitation wavelength of 340 nm."}, "[2]": {"biological_target": "Tyrosine-protein kinase JAK2 (Homo sapiens, UniProt O60674)", "sequence (O60674 whole entry)": "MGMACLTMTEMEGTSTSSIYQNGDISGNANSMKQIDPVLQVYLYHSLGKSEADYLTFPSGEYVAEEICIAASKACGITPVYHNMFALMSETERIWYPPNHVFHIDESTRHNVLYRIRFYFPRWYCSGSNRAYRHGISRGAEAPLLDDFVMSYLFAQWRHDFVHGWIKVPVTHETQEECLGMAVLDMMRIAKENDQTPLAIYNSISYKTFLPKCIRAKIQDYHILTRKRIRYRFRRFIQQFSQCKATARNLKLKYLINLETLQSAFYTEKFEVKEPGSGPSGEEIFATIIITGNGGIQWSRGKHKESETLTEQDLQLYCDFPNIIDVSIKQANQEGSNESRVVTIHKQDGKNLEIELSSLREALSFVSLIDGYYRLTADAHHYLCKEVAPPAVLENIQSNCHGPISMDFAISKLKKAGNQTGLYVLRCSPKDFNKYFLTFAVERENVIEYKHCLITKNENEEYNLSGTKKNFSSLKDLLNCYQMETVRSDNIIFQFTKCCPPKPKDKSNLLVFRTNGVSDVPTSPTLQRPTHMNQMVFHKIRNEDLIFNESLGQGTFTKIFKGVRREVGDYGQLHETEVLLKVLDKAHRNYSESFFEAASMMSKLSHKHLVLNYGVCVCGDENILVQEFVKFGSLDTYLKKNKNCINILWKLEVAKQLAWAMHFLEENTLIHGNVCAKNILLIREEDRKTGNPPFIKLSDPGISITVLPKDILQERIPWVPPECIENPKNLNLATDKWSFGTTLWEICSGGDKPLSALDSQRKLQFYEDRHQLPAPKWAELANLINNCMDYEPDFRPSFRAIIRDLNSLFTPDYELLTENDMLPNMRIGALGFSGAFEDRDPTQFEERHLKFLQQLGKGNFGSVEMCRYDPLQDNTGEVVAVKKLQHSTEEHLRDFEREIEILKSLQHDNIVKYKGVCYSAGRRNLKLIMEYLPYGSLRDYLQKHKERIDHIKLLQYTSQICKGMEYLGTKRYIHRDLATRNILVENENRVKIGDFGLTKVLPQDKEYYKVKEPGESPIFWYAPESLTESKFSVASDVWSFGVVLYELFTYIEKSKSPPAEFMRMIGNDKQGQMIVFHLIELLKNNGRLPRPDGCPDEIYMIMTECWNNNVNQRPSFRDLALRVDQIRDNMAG", "assay": "TR-FRET Assay: Compounds were screened in the TR-FRET assay for JAK2 and c-Src kinase inhibition. Ultra light poly GT (Perkin Elmer) was used as the substrate for JAK2 and c-Src with the ATP concentration of 10 μM and 50 μM, respectively."}}}
{"smiles": "Cc1ccc(NC(=O)c2cccc(C(C)(C)C)c2)cc1N1CCc2nc(Nc3ccc(N4CCN(C)CC4)cc3)ncc2C1=O", "values": [{"measurement": "IC50", "setting": "[1]", "value": 28, "unit": "nM"}, {"measurement": "IC50", "setting": "[2]", "value": 45, "unit": "nM"}]}
{"smiles": "Cc1ccc(NC(=O)c2cccc(C(F)(F)F)c2)cc1N1CCc2nc(Nc3ccc(C(=O)NC4CCN(C)CC4)cc3)ncc2C1", "values": [{"measurement": "IC50", "setting": "[1]", "value": 2, "unit": "nM"}, {"measurement": "IC50", "setting": "[2]", "value": 7, "unit": "nM"}]}
{"smiles": "CN1CCN(c2ccc(Nc3ncc4c(n3)CCN(c3cc(NC(=O)c5cc(F)cc(C(F)(F)F)c5)ccc3Cl)C4=O)cc2)CC1", "values": [{"measurement": "IC50", "setting": "[2]", "value": 9, "unit": "nM"}]}
{"smiles": "CN1CCN(c2ccc(Nc3ncc4c(n3)CCN(c3cc(NC(=O)c5cccc(C(F)(F)F)c5)ccc3Cl)C4)cc2)CC1", "values": [{"measurement": "IC50", "setting": "[2]", "value": 8.8, "unit": "nM"}]}
